Assay results: patent US11866430B2, “Naphthyridinone compounds useful as T cell activators” (priority 2018, dated 2024)
Like-named read-outs stand apart in the source and are kept apart here.

Key:
human DGKα = human DGKα (Homo sapiens (Human), UniProt P23743); test: biochemical; conditions: detergent/lipid micelle substrate; read-out: DGKα IC50
Method in brief: (§1)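 Full-length human DGKα or DGKζ (C-terminal His tag, Sf9-expressed; 20 nM 4× stock) was preincubated 10 min at room temperature with PS/DAG octyl glucoside micelles in MOPS pH 7.5 buffer with MgCl2, CaCl2 and DTT. It was then started with ATP (300 uM addition) and run for 1 hr, with ADP-Glo luminescence read-out.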

human DGKζ = human DGKζ (Homo sapiens (Human), UniProt Q13574); test: DGKζ assay (detergent/lipid micelle substrate); assay type: biochemical; conditions: detergent/lipid micelle substrate; read-out: DGKζ IC50
Method in brief: as §1

[1] = test system: pre-activated CD4 T cells and Raji cells; test: Raji CD4 T Cell IL2 Assay; assay type: cell-based

Sequence of human DGKζ (Q13574 other isoform, or with tags, fused parts or gaps): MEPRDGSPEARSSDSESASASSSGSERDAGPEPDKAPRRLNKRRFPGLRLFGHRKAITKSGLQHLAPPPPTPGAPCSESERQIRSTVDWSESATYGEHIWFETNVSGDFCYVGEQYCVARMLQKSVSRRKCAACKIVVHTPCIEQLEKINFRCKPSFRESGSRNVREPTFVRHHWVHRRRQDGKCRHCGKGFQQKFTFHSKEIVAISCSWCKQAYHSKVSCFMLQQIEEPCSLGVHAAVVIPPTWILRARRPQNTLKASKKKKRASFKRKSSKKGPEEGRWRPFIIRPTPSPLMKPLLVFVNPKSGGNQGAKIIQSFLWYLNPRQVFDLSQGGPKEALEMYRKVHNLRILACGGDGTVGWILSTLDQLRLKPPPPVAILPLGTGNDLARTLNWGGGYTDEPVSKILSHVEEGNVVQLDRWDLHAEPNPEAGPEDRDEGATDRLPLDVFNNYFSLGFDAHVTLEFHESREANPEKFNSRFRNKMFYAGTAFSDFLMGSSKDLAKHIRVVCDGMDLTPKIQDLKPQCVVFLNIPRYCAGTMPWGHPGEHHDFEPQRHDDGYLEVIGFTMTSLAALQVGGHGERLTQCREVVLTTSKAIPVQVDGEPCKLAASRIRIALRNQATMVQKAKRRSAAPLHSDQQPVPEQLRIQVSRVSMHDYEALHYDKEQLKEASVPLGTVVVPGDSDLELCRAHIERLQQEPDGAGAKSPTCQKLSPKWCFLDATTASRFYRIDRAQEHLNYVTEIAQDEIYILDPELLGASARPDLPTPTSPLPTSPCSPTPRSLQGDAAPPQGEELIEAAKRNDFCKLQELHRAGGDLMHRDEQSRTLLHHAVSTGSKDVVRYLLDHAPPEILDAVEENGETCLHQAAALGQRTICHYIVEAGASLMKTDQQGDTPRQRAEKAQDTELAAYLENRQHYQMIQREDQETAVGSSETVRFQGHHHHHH
Sequence of human DGKα (P23743 other isoform, or with tags, fused parts or gaps): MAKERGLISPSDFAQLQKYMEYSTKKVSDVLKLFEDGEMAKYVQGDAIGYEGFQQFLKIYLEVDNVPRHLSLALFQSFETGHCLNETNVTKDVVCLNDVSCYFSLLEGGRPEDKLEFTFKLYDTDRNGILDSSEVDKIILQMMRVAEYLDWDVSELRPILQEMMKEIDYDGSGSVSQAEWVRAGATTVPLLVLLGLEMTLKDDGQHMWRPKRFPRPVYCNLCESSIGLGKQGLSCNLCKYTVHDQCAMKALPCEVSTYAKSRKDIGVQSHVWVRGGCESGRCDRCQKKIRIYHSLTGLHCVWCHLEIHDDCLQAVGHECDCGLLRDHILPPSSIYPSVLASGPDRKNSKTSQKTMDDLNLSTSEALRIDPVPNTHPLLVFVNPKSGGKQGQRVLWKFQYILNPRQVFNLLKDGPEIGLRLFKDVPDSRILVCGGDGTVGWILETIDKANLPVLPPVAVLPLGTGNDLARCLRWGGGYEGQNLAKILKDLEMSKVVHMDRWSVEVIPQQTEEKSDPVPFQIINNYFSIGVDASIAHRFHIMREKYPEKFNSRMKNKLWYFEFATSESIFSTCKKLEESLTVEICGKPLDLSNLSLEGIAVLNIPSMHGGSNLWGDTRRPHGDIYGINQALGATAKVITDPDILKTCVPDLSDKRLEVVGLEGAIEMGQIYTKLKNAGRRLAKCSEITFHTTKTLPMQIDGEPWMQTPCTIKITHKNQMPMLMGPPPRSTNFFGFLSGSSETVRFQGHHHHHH

Compound	IC50 (human DGKα)	IC50 (human DGKζ)	IC50 ([1]; Homo sapiens, Raji)	IC50 [1]
Cn1c(=O)c(C#N)c(N2CCN(Cc3ccccc3F)CC2)c2nc(Cl)ccc21 [Example 339, 6-chloro-4-{4-[(2-fluorophenyl)methyl]piperazin-1-yl}-1-methyl-2-oxo-1,2-dihydro-1,5-naphthyridine-3-carbonitrile]	0.57 µM	> 240 µM	0.65 µM	–
Cn1c(=O)c([N+](=O)[O-])c(N2CCN(C3(c4ccc(F)cc4)CC3)CC2)c2nc(C#N)ccc21 [Example 342, 8-{4-[1-(4-fluorophenyl)cyclopropyl]piperazin-1-yl}-5-methyl-7-nitro-6-oxo-5,6-dihydro-1,5-naphthyridine-2-carbonitrile]	28 µM	> 240 µM	0.79 µM	–
COCCn1c(=O)c(C#N)c(N2CCN(C(c3ccc(F)cc3)c3ccccc3O)CC2)c2nc(Br)ccc21 (stereo not drawn) [Example 117, 6-bromo-4-(4-((4-fluorophenyl)(2-hydroxyphenyl)methyl)piperazin-1-yl)-1-(2-methoxyethyl)-2-oxo-1,2-dihydro-1,5-naphthyridine-3-carbonitrile]	46 µM	21 µM	0.77 µM	–
Cc1ccccc1CN1CCN(c2c(C#N)c(=O)n(C)c3ccc(Cl)nc23)CC1 [Example 346, 6-chloro-1-methyl-4-{4-[(2-methylphenyl)methyl]piperazin-1-yl}-2-oxo-1,2-dihydro-1,5-naphthyridine-3-carbonitrile]	5.3 µM	> 240 µM	1.1 µM	–
Cn1c(=O)c([N+](=O)[O-])c(N2CCN(C(c3ccc(F)cc3)c3ccccc3O)CC2)c2nc(C#N)ccc21 (single isomer, unassigned) [Example 98, 8-(4-((4-fluorophenyl)(2-hydroxyphenyl)methyl)piperazin-1-yl)-5-methyl-7-nitro-6-oxo-5,6-dihydro-1,5-naphthyridine-2-carbonitrile]	6.7 µM	4.4 µM	–	0.13 µM
C#CCn1c(=O)c(C#N)c(N2CCN(Cc3ccc(F)cc3OC)CC2)c2nc(Br)ccc21 [Example 68, 6-bromo-4-(4-(4-fluoro-2-methoxybenzyl)piperazin-1-yl)-2-oxo-1-(prop-2-yn-1-yl)-1,2-dihydro-1,5-naphthyridine-3-carbonitrile]	4 µM	23 µM	0.052 µM	–
Cn1c(=O)c(C#N)c(N2CCN(Cc3cc(Cl)cc(Cl)c3O)CC2)c2nc(Cl)ccc21 [Example 307, 6-chloro-4-{4-[(3,5-dichloro-2-hydroxyphenyl)methyl]piperazin-1-yl}-1-methyl-2-oxo-1,2-dihydro-1,5-naphthyridine-3-carbonitrile]	1.8 µM	> 81 µM	0.21 µM	–
N#CCn1c(=O)c(C#N)c(N2CCN(C(c3ccc(F)cc3)c3ccccc3O)CC2)c2nc(Br)ccc21 (stereo not drawn) [Example 157, 6-bromo-1-(cyanomethyl)-4-(4-((4-fluorophenyl)(2-hydroxyphenyl)methyl)piperazin-1-yl)-2-oxo-1,2-dihydro-1,5-naphthyridine-3-carbonitrile]	53 µM	26 µM	0.22 µM	–
Cn1c(=O)c(C#N)c(N2CCN(Cc3ccc(O)c(Cl)c3)CC2)c2nc(Cl)ccc21 [Example 354, 6-chloro-4-{4-[(3-chloro-4-hydroxyphenyl)methyl]piperazin-1-yl}-1-methyl-2-oxo-1,2-dihydro-1,5-naphthyridine-3-carbonitrile]	0.11 µM	> 240 µM	2.5 µM	–
Cn1c(=O)c(C#N)c(N2CCN(Cc3ccc(F)c(F)c3)CC2)c2nc(Cl)ccc21 [Example 319, 6-chloro-4-{4-[(3,4-difluorophenyl)methyl]piperazin-1-yl}-1-methyl-2-oxo-1,2-dihydro-1,5-naphthyridine-3-carbonitrile]	0.55 µM	220 µM	0.3 µM	–
COCCn1c(=O)c(C#N)c(N2CCN(C(c3ccc(F)cc3)c3ccc(F)cc3OC)CC2)c2nc(Br)ccc21 (single isomer, unassigned) [Example 116, 6-bromo-4-(4-((4-fluoro-2-methoxyphenyl)(4-fluorophenyl)methyl)piperazin-1-yl)-1-(2-methoxyethyl)-2-oxo-1,2-dihydro-1,5-naphthyridine-3-carbonitrile]	> 240 µM	> 240 µM	–	0.17 µM
C=CCOc1cccc(C)c1C(c1ccc(F)cc1)N1CCN(c2c([N+](=O)[O-])c(=O)n(C)c3ccc(Br)nc23)CC1 (single isomer, unassigned) [Example 96, 4-(4-((2-(allyloxy)-6-methylphenyl)(4-fluorophenyl)methyl)piperazin-1-yl)-6-bromo-1-methyl-3-nitro-1,5-naphthyridin-2(1-H)-one]	87 µM	53 µM	–	0.36 µM
Cn1c(=O)c(C#N)c(N2CCN(Cc3cc(O)cc(Cl)c3)CC2)c2nc(Cl)ccc21 [Example 345, 6-chloro-4-{4-[(3-chloro-5-hydroxyphenyl)methyl]piperazin-1-yl}-1-methyl-2-oxo-1,2-dihydro-1,5-naphthyridine-3-carbonitrile]	4.6 µM	> 240 µM	0.99 µM	–
Cc1ccc2c(n1)c(N1CCN(Cc3cc(Cl)ccc3O)CC1)c(C#N)c(=O)n2C [Example 296, 4-{4-[(5-chloro-2-hydroxyphenyl)methyl]piperazin-1-yl}-1,6-dimethyl-2-oxo-1,2-dihydro-1,5-naphthyridine-3-carbonitrile]	0.98 µM	150 µM	0.15 µM	–
COCCCn1c(=O)c([N+](=O)[O-])c(N2CCN(C(c3ccccc3)c3ccccc3)CC2)c2ncccc21 [Example 190, 4-(4-benzhydrylpiperazin-1-yl)-1-(3-methoxypropyl)-3-nitro-1,5-naphthyridin-2(1H)-one]	58 µM	> 240 µM	4.2 µM	–
Cn1c(=O)c(C#N)c(N2CCN(Cc3cccc(Br)c3O)CC2)c2nc(Cl)ccc21 [Example 268, 4-{4-[(3-bromo-2-hydroxyphenyl)methyl]piperazin-1-yl}-6-chloro-1-methyl-2-oxo-1,2-dihydro-1,5-naphthyridine-3-carbonitrile]	0.68 µM	120 µM	0.051 µM	–
CN(C)C(=O)c1ccc2c(n1)c(N1CCN(C(c3ccc(F)cc3)c3ccc(F)cc3)CC1)c(C#N)c(=O)n2C [Example 231, 8-(4-(bis(4-fluorophenyl)methyl)piperazin-1-yl)-7-cyano-N,N,5-trimethyl-6-oxo-5,6-dihydro-1,5-naphthyridine-2-carboxamide]	170 µM	> 240 µM	3 µM	–
Cc1ccc2c(n1)c(N1CCN(Cc3ccccc3O)CC1)c(C#N)c(=O)n2C [Example 337, 4-{4-[(2-hydroxyphenyl)methyl]piperazin-1-yl}-1,6-dimethyl-2-oxo-1,2-dihydro-1,5-naphthyridine-3-carbonitrile]	0.065 µM	> 81 µM	0.55 µM	–
C=CCOc1cccc(C)c1C(c1ccc(F)cc1)N1CCN(c2c([N+](=O)[O-])c(=O)n(C)c3ccc(Br)nc23)CC1 (single isomer, unassigned) [Example 95, 4-(4-((2-(allyloxy)-6-methylphenyl)(4-fluorophenyl)methyl)piperazin-1-yl)-6-bromo-1-methyl-3-nitro-1,5-naphthyridin-2(1-H)-one]	> 240 µM	> 240 µM	–	1.1 µM
COCCn1c(=O)c([N+](=O)[O-])c(N2CCN(C(c3ccc(F)cc3)c3ccc(F)cc3)CC2)c2nc(C#N)ccc21 [Example 147, 8-(4-(bis(4-fluorophenyl)methyl)piperazin-yl)-5-(2-methoxyethyl)-7-nitro-6-oxo-5,6-dihydro-1,5-naphthyridine-2-carbonitrile]	76 µM	3.6 µM	0.3 µM	–
COc1ccccc1CN1CCN(c2c(C#N)c(=O)n(C)c3ccc(Cl)nc23)CC1 [Example 331, 6-chloro-4-{4-[(2-methoxyphenyl)methyl]piperazin-1-yl}-1-methyl-2-oxo-1,2-dihydro-1,5-naphthyridine-3-carbonitrile]	0.49 µM	> 240 µM	0.52 µM	–
CCn1ccc2c(CN3CCN(c4c(C#N)c(=O)n(C)c5ccc(Cl)nc45)CC3)cccc21 [Example 220, 6-chloro-4-(4-((1-ethyl-1H-indol-4-yl)methyl)piperazin-1-yl)-1-methyl-2-oxo-1,2-dihydro-1,5-naphthyridine-3-carbonitrile]	1.7 µM	89 µM	0.063 µM	–
